In ChEMBL document CHEMBL1201862, “PubChem BioAssay data set” (2004):
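Cells were grown in 96-well plates and exposed to each compound for 48 hours at five concentrations; endpoints were interpolated linearly between bracketing concentrations, or set to the highest concentration if not reached. The concentration for 50% growth inhibition is given as GI50.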 The source made the active and inactive calls. No stated cut-off is given here; in the data, active = GI50 up to about 1.1 µM and inactive = higher.

Tests used:
Assay in all cases: inhibition of tumour cell growth, NCI panel, 48 h
A549 = system: A549
CCRF-CEM = system: CCRF-CEM
HCT-15 = system: HCT-15
HT-29 = system: HT-29
K562 = system: K562
LOX IMVI = system: LOX IMVI
M14 = system: M14
Malme-3M = system: Malme-3M
NCI-H226 = system: NCI-H226
NCI-H23 = system: NCI-H23
OVCAR-3 = system: OVCAR-3
SF-539 = system: SF-539
SK-MEL-28 = system: SK-MEL-28
SK-MEL-2 = system: SK-MEL-2
SK-OV-3 = system: SK-OV-3
SR = system: SR
TK-10 = system: TK-10
U-251 = system: U-251
UO-31 = system: UO-31
RXF 393 = system: RXF 393

Compound | GI50 (A549) | GI50 (CCRF-CEM) | GI50 (HCT-15) [µM] | GI50 (HT-29) | GI50 (K562) | GI50 (LOX IMVI) | GI50 (M14) | GI50 (Malme-3M) | GI50 (NCI-H226) | GI50 (NCI-H23) | GI50 (OVCAR-3) | GI50 (SF-539) | GI50 (SK-MEL-28) | GI50 (SK-MEL-2) | GI50 (SK-OV-3) | GI50 (SR) | GI50 (TK-10) | GI50 (U-251) | GI50 (UO-31) | GI50 (RXF 393)
O=C1OC(c2ccccc2Br)=N/C1=C/c1ccccc1 | 29.6 µM (inactive) | 35 µM (inactive) | 29.9 | 32.1 µM (inactive) | 63 µM (inactive) | 21.7 µM (inactive) | 18.6 µM (inactive) | 19.6 µM (inactive) | 18.8 µM (inactive) | 32.8 µM (inactive) | 14.1 µM (inactive) | 18.5 µM (inactive) | 41.8 µM (inactive) | 18.8 µM (inactive) | 63.7 µM (inactive) | 27 µM (inactive) | 32.8 µM (inactive) | 26.6 µM (inactive) | 45.9 µM (inactive) | 
Cc1cc(N(CCC#N)CCC#N)ccc1/N=N/c1cc(Cl)ccc1Cl | 19.2 µM (inactive) | 2.92 µM (inactive) | 2.05 | 2.64 µM (inactive) | 2.78 µM (inactive) | 3.62 µM (inactive) | 3.46 µM (inactive) | 4.98 µM (inactive) | 6.38 µM (inactive) | 13.4 µM (inactive) | 5.51 µM (inactive) | 6.28 µM (inactive) | 7.87 µM (inactive) | 17.3 µM (inactive) | 16.3 µM (inactive) |  | 11.1 µM (inactive) | 18.3 µM (inactive) | 16.7 µM (inactive) | 10.5 µM (inactive)
CC(=O)NC(CCCNC(=O)N(C)N=O)C(=O)NCc1ccccc1 (stereo not given) | > 100 µM (inactive) | > 100 µM (inactive) | > 100 | > 100 µM (inactive) | > 100 µM (inactive) | > 100 µM (inactive) | > 100 µM (inactive) | > 100 µM (inactive) | > 100 µM (inactive) | > 100 µM (inactive) | > 100 µM (inactive) | > 100 µM (inactive) | > 100 µM (inactive) | > 100 µM (inactive) | > 100 µM (inactive) |  | > 100 µM (inactive) | > 100 µM (inactive) | > 100 µM (inactive) | > 100 µM (inactive)
COc1cccc(CCn2c(N)c(C#N)c3ccc([N+](=O)[O-])cc3c2=O)c1 | > 46.5 µM (inactive) | 4.35 µM (inactive) | > 31.6 | > 31.6 µM (inactive) | 0.283 µM (active) | > 46.5 µM (inactive) | > 31.6 µM (inactive) |  | > 31.6 µM (inactive) | > 46.5 µM (inactive) | > 31.6 µM (inactive) | > 10 µM (inactive) | > 100 µM (inactive) | > 46.5 µM (inactive) | > 31.6 µM (inactive) | 0.073 µM (active) | > 46.5 µM (inactive) | > 100 µM (inactive) | > 46.5 µM (inactive) | 
CC(C)c1nccn1Cc1ccc(Cl)cc1Cl | 34.4 µM (inactive) |  | 42.4 | 28.8 µM (inactive) | 79.1 µM (inactive) | 43.6 µM (inactive) | 38.1 µM (inactive) | 41.2 µM (inactive) | 22.4 µM (inactive) | 27.4 µM (inactive) | 27.2 µM (inactive) | 61.2 µM (inactive) | > 100 µM (inactive) | 74.3 µM (inactive) | 47.9 µM (inactive) | 44.4 µM (inactive) | 37.6 µM (inactive) | 41.5 µM (inactive) | 24.9 µM (inactive) | 
CC1=CCC2CC1C(C(=O)c1c[nH]c3ccccc13)=NC2(C)C (stereo not given) | 61 µM (inactive) | 22.4 µM (inactive) | 45.2 | 51.1 µM (inactive) | 34 µM (inactive) | 80.9 µM (inactive) | 41.5 µM (inactive) | > 100 µM (inactive) | > 100 µM (inactive) | 87.7 µM (inactive) | > 100 µM (inactive) | > 100 µM (inactive) | > 100 µM (inactive) |  | 94.4 µM (inactive) | 4.5 µM (inactive) |  | 34.5 µM (inactive) | 48.8 µM (inactive) | 
Cc1ccc2oc(=O)c(-c3ccccc3)nc2c1 | 26 µM (inactive) | 18.5 µM (inactive) | 25.1 | 45.6 µM (inactive) | 24.3 µM (inactive) | 20.2 µM (inactive) | 43.3 µM (inactive) | 23.4 µM (inactive) | 37.8 µM (inactive) | 24.7 µM (inactive) | 46.5 µM (inactive) | 18.2 µM (inactive) | 50.4 µM (inactive) | 21 µM (inactive) |  | 29.5 µM (inactive) | 34 µM (inactive) |  | 27 µM (inactive) | 
CC(=O)C1CC(C)=CCC12C(=O)Nc1ccccc12 (stereo not given) | > 100 µM (inactive) | > 100 µM (inactive) | > 100 | > 100 µM (inactive) | > 100 µM (inactive) | > 100 µM (inactive) | > 100 µM (inactive) | > 100 µM (inactive) | > 100 µM (inactive) | > 100 µM (inactive) | > 100 µM (inactive) | > 100 µM (inactive) | > 100 µM (inactive) | > 100 µM (inactive) | > 100 µM (inactive) |  | > 100 µM (inactive) | > 100 µM (inactive) |  | 13.9 µM (inactive)
C#C[C@H](CCCC)OC(=O)N[C@H](C)c1ccccc1 | 36.1 µM (inactive) | 34.6 µM (inactive) |  | 40.2 µM (inactive) | 34.6 µM (inactive) | 33.2 µM (inactive) | 41.8 µM (inactive) |  |  |  | 53.3 µM (inactive) |  | 54.5 µM (inactive) | 36.1 µM (inactive) | > 100 µM (inactive) | 26.9 µM (inactive) | 37.8 µM (inactive) | 59.8 µM (inactive) | 26.9 µM (inactive) | 30.9 µM (inactive)
CSCCC(NC(=O)OCc1ccccc1)NC(=O)OCc1ccccc1 | > 100 µM (inactive) | > 10 µM (inactive) | > 100 | > 100 µM (inactive) | > 100 µM (inactive) | > 100 µM (inactive) | > 100 µM (inactive) |  | > 100 µM (inactive) | > 100 µM (inactive) | > 100 µM (inactive) |  | > 100 µM (inactive) | > 100 µM (inactive) | > 100 µM (inactive) | > 100 µM (inactive) | > 100 µM (inactive) | > 100 µM (inactive) | > 100 µM (inactive) | 
COC(=O)/C=c1\s/c(=C\C(=O)OC)c2ccccc12 | > 100 µM (inactive) | > 100 µM (inactive) | 33.8 | > 100 µM (inactive) | > 100 µM (inactive) | > 100 µM (inactive) | > 100 µM (inactive) | > 100 µM (inactive) | 57.8 µM (inactive) | > 100 µM (inactive) | > 100 µM (inactive) | > 100 µM (inactive) | > 100 µM (inactive) | > 100 µM (inactive) | > 100 µM (inactive) |  | > 100 µM (inactive) | > 100 µM (inactive) | 89.1 µM (inactive) | > 100 µM (inactive)
O=S(=O)(N/C(=N\O)Nc1ccc(Cl)cc1)c1cc2ccccc2s1 | 18.7 µM (inactive) | 21.9 µM (inactive) | 18 | 19.6 µM (inactive) | 27.9 µM (inactive) | 17.5 µM (inactive) | 17.9 µM (inactive) | 15.6 µM (inactive) | 15.4 µM (inactive) | 16 µM (inactive) | 15 µM (inactive) | 18.5 µM (inactive) | 19.4 µM (inactive) | 15.8 µM (inactive) | 16.7 µM (inactive) |  | 19.4 µM (inactive) | 15.2 µM (inactive) | 33.9 µM (inactive) | 15.1 µM (inactive)
